Tested on: patients with elevated triglyceride levels on statin therapy
Experiment: REDUCE-IT trial: safety (treatment-emergent adverse events, bleeding, atrial fibrillation/flutter)
Conditions: N = 4089
[1] = serious bleeding TEAE by preferred term
[2] = serious bleeding TEAE, Safety population

Description: Specification of Variables and Procedures: Safety assessments included adverse events, clinical laboratory measurements (chemistry, hematology), 12-lead ECGs, vital signs (systolic and diastolic blood pressure, heart rate, respiratory rate, and body temperature), weight, waist circumference, and physical examinations as per Study Procedures in Table 1. […] All laboratory test results were evaluated by the investigator as to their clinical significance. Any observations at physical examinations or laboratory values considered by the investigator to be clinically significant were considered an adverse event.
An adverse event can therefore be any unfavorable and/or unintended sign (including an abnormal laboratory finding), symptom, or disease temporally associated with the use of an investigational medication product, whether or not related to the investigational medication product. All adverse events, including observed or volunteered problems, complaints, or symptoms, were recorded on the appropriate CRF. Each adverse event was evaluated for duration, intensity, and causal relationship with the study medication or other factors.
Serious Adverse Events: A serious adverse event (SAE) is defined as an adverse event that meets any of the following criteria: • Results in death; • Is life-threatening—The term “life-threatening” in the definition of “serious” refers to an event in which the patient was at risk of death at the time of the event. […] Important medical events that may not result in death, be life threatening, or require hospitalization were considered an SAE when, based upon appropriate medical judgment, they may have jeopardized the patient and may have required medical or surgical intervention to prevent one of the outcomes listed above.
Adverse Events of Special Interest: Bleeding-related adverse events, glucose control (fasting blood glucose and HbA1c), and indicators of hepatic disorders (e.g., ALT or AST increases >3×ULN, total bilirubin increases of ≥2×ULN) were summarized separately and compared between treatment groups.
Analysis of Safety: All analyses of safety were conducted on the safety population, which was defined as all randomized patients. The safety assessment was based on the frequency of adverse events, physical exams, vital signs and safety laboratory tests. AEs with new onset during the study between the initiation of study drug and 30 days after the last dose of study drug for each patient was considered treatment-emergent (TEAEs). This included any AE with onset prior to initiation of study drug and increased severity after the treatment initiation.
This included overall incidence rates (regardless of severity and relationship to study drug), and incidence rates for moderate or severe adverse events. A summary of SAEs and adverse events leading to early discontinuation (for ≥30 days) were presented through data listings. Patients who restarted study drug were included in the summary of AEs leading to discontinuation. Safety laboratory tests and vital signs were summarized by post-treatment change from baseline for each of the parameters using descriptive statistics by treatment group. Those patients with significant laboratory abnormalities were identified in data listings. Additional safety parameters were summarized in data listings.

CC/C=C\C/C=C\C/C=C\C/C=C\C/C=C\CCCC(=O)OCC [icosapent ethyl, eicosapentaenoic acid ethyl ester]
4: Hemorrhagic Anemia, number of patients [1]
62: Gastrointestinal bleeding, number of patients [2]
5: Lower Gastrointestinal Hemorrhage, number of patients [1] | Post Procedural Hemorrhage, number of patients [1]
8: Hematuria, number of patients [1]
(1.5%): Gastrointestinal bleeding, % of patients [2]
14: Central nervous system bleeding, number of patients [2]
(0.2%): Hematuria, % of patients [1] | Rectal Hemorrhage, % of patients [1] | Subdural Hematoma, % of patients [1]
(0.3%): Central nervous system bleeding, % of patients [2]
26: Gastrointestinal Hemorrhage, number of patients [1]
111: Bleeding related disorders, number of patients [2]
(0.1%): Gastric Ulcer Hemorrhage, % of patients [1] | Hematemesis, % of patients [1] | Hemorrhagic Anemia, % of patients [1] | Hemorrhoidal Hemorrhage, % of patients [1] | Lower Gastrointestinal Hemorrhage, % of patients [1] | Melaena, % of patients [1] | Post Procedural Hemorrhage, % of patients [1] | Upper Gastrointestinal Hemorrhage, % of patients [1]
41: Other bleeding, number of patients [2]
(2.7%): Bleeding related disorders, % of patients [2]
10: Rectal Hemorrhage, number of patients [1]
(0.6%): Gastrointestinal Hemorrhage, % of patients [1]
0: Hemarthrosis, number of patients [1] | Hemorrhagic Duodenitis, number of patients [1] | Immune Thrombocytopenic Purpura, number of patients [1] | Intracranial Hemorrhage, number of patients [1] | Mouth Hemorrhage, number of patients [1] | Pericardial Hemorrhage, number of patients [1] | Post Procedural Hematuria, number of patients [1] | Renal Hemorrhage, number of patients [1] | Retroperitoneal Hematoma, number of patients [1] | Traumatic Intracranial Hemorrhage, number of patients [1]
(0.0%): Extravasation Blood, % of patients [1] | Gastric Hemorrhage, % of patients [1] | Gastrointestinal Angiodysplasia Hemorrhagic, % of patients [1] | Genital Hemorrhage, % of patients [1] | Hemarthrosis, % of patients [1] | Hematochezia, % of patients [1] | Hematoma, % of patients [1] | Hemoptysis, % of patients [1] | Hemorrhagic Duodenitis, % of patients [1] | Hemorrhagic Transformation Stroke, % of patients [1] | Hemothorax, % of patients [1] | Immune Thrombocytopenic Purpura, % of patients [1] | Intra-Abdominal Hemorrhage, % of patients [1] | Intracranial Hemorrhage, % of patients [1] | Large Intestinal Hemorrhage, % of patients [1] | Mallory-Weiss Syndrome, % of patients [1] | Menorrhagia, % of patients [1] | Mouth Hemorrhage, % of patients [1] | Pancreatitis Hemorrhagic, % of patients [1] | Peptic Ulcer Hemorrhage, % of patients [1] | Pericardial Hemorrhage, % of patients [1] | Post Procedural Hematoma, % of patients [1] | Post Procedural Hematuria, % of patients [1] | Renal Hemorrhage, % of patients [1] | Retinal Hemorrhage, % of patients [1] | Retroperitoneal Hematoma, % of patients [1] | Retroperitoneal Hemorrhage, % of patients [1] | Shock Hemorrhagic, % of patients [1] | Subarachnoid Hemorrhage, % of patients [1] | Subdural Hemorrhage, % of patients [1] | Traumatic Hematoma, % of patients [1] | Traumatic Intracranial Hemorrhage, % of patients [1] | Ulcer Hemorrhage, % of patients [1] | Urinary Bladder Hemorrhage, % of patients [1]
1: Extravasation Blood, number of patients [1] | Gastric Hemorrhage, number of patients [1] | Gastrointestinal Angiodysplasia Hemorrhagic, number of patients [1] | Genital Hemorrhage, number of patients [1] | Hematochezia, number of patients [1] | Hematoma, number of patients [1] | Hemoptysis, number of patients [1] | Hemorrhagic Transformation Stroke, number of patients [1] | Hemothorax, number of patients [1] | Intra-Abdominal Hemorrhage, number of patients [1] | Large Intestinal Hemorrhage, number of patients [1] | Mallory-Weiss Syndrome, number of patients [1] | Menorrhagia, number of patients [1] | Pancreatitis Hemorrhagic, number of patients [1] | Peptic Ulcer Hemorrhage, number of patients [1] | Post Procedural Hematoma, number of patients [1] | Retinal Hemorrhage, number of patients [1] | Retroperitoneal Hemorrhage, number of patients [1] | Ulcer Hemorrhage, number of patients [1] | Urinary Bladder Hemorrhage, number of patients [1]
3: Gastric Ulcer Hemorrhage, number of patients [1] | Hematemesis, number of patients [1] | Hemorrhoidal Hemorrhage, number of patients [1] | Melaena, number of patients [1] | Upper Gastrointestinal Hemorrhage, number of patients [1]
(1.0%): Other bleeding, % of patients [2]
2: Shock Hemorrhagic, number of patients [1] | Subarachnoid Hemorrhage, number of patients [1] | Subdural Hemorrhage, number of patients [1] | Traumatic Hematoma, number of patients [1]
9: Subdural Hematoma, number of patients [1]

Source: US20200261391A1, “METHODS OF REDUCING THE RISK OF A CARDIOVASCULAR EVENT IN A STATIN-TREATED SUBJECT BY INCREASING SERUM AND PLASMA EPA AND DPA LEVELS” (Amarin Pharmaceuticals Ireland Limited, priority 2019, published 2020)
